Values of other authors in patent publication US20190231888A1, “TEXAPHYRIN AND ANTITUMOR ANTIBIOTIC CONJUGATES” (priority 2016, published 2019).

Settings: intravenous, determined in one study; cited from earlier work

Question: With lutetium texaphyrin as the substance, how does the maximum tolerated dose read?
Answer: 5.2 mg/kg
